Where two headings read alike, the source gives them in different places.
Legend:
[1] = tested on: subject with recurrent, non-streptococcal, non-specific sore throat; experiment: Treatment of non-specific recurrent sore throat; assay type: in vivo, human; details: person, 29 kg, 1 mg/day before sleep, followed 11 months
Protocol: A person was treated with 1 mg taken before sleep and followed for 11 months in total. […] One mg dose was given based on a weight of 29 kg.

[2] = tested on: subject with cancer-related bone pain; experiment: Treatment of cancer-related bone pain; assay type: in vivo, human; details: person, 2 mg in the early evening
Protocol: A person was treated with 2 mg taken in the early evening hours. The subject reported resolution of bone pain related to metastatic prostate cancer to the cervical spine within 4 days. The subject was previously dependent on the daily use of opiate pain medications for the past 6 months.

[3] = tested on: subjects with CLL; experiment: Treatment of chronic lymphocytic leukemia; assay type: in vivo, human; details: Subject 1 (person eleven), 2 mg, one month; from 25,000 (rising by 10%/month)
[4] = Solubility of dipyridamole in propylene glycol / water; assay type: physicochemical
Description: (§1) Solubility of a compound is known to increase absorption and efficacy. In other exemplary embodiments of the invention, liquid formulations are provided in gel-caps.

[5] = tested on: subjects with erectile dysfunction; experiment: Erectile dysfunction treatment with low dose oral dipyridamole; assay type: in vivo, human
Description: Some subjects had either failed or could not tolerate conventional treatments.

[6] = tested on: subjects with chronic rheumatic pain; experiment: Treatment of chronic rheumatic or fibromyalgia pain; assay type: in vivo, human
Protocol: Subject 1 was treated with 2 mg taken once daily with the first daily dose of oxycodone. Subject 2 (person twelve) was treated with 2 mg or 5 mg taken once daily, in conjunction with oxycodone. Subject 3 (person five) was treated with 2 mg, 5 mg or 10 mg taken once daily with PERCOCET.

[7] = tested on: human subjects with intractable insomnia; experiment: Insomnia treatment with low dose oral dipyridamole; assay type: in vivo
[8] = tested on: subjects with frequent viral infections (with upper respiratory symptoms); experiment: Prevention and treatment of viral disease; assay type: in vivo, human
Protocol: Subject 1 (person eight), Subject 2 (person two), Subject 3, and Subject 4 were treated with varying doses (2, 5 and 10 mg) taken at any time during the day, for periods of 2 weeks for each dose, and thereafter continuously for up to 2 years.

[9] = cited from earlier work
[10] = tested on: subject with androgenetic alopecia; experiment: Treatment of androgenetic alopecia; assay type: in vivo, human; details: person, 14 months in total
Protocol: A person was treated with varying doses (2 and 4 mg) taken in the morning or evening, for periods of 2 weeks for each dose and continued with the optimal dose for 14 months in total.

[11] = Storage stability of dipyridamole dissolved in propylene glycol; assay type: physicochemical; details: 1 year of storage at room temperature
Description: as §1

[12] = tested on: subjects with xerostomia; experiment: Xerostomia treatment; assay type: in vivo, human; details: Subject 1 (person twelve), 2 mg
Protocol: Subject 1 (person twelve) and Subject 2 (person three) were treated with varying doses (1, 2, 3, 4, 5 and 10 mg) taken in the morning or evening, for periods of 2 weeks for each dose then continued on optimal dose for 15 months in total.

[13] = tested on: subjects with treatment-refractory insomnia; experiment: Dipyridamole in combination with melatonin for insomnia; assay type: in vivo, human
Protocol: The melatonin dose ranged between 0.25 mg and 10 mg per pill.

[14] = tested on: subject with prostate cancer; experiment: Prostate cancer treatment; assay type: in vivo, human; details: person four, daily dose of 2 mg, 3 month period; from 19.1
Protocol: person four was treated with 2 mg taken in the afternoon or evening and followed for 3 months.

[15] = tested on: subjects with keratoconjunctivitis sicca; experiment: Keratoconjunctivitis sicca treatment with low dose oral dipyridamole; assay type: in vivo, human; details: Subject 1 (person thirteen), 2 mg
Protocol: Each of the three subjects was unresponsive to cyclosporine eye drops or to lubricating drops which are the conventional treatments.
Subject 1 (person thirteen), Subject 2 (person twelve) and Subject 3 (person twelve) were treated with varying doses (2, 5 and 10 mg) taken before sleep or in the afternoon/evening hours, for initial periods of up to 2 weeks for each dose to establish optimal dosing, and followed for up to 12 months in total.

[16] = IV or oral 20-50 mg, followed up to 60 hours

Question: Which “outcome on recurrent sore throat” value [1] does the source give for OCCN(CCO)c1nc(N2CCCCC2)c2nc(N(CCO)CCO)nc(N3CCCCC3)c2n1 [dipyridamole] here?
Answer: complete resolution of recurrent sore throat

Question: What about the “time to resolution of bone pain related to metastatic prostate cancer to the cervical spine” value [2] of the same compound?
Answer: ≤ 4 days

Question: What about the “white blood cell count after treatment” value [3] of the same compound?
Answer: 18,000

Question: What about the “solubility in propylene glycol” value ([4]; propylene glycol) of the same compound?
Answer: ≥ 10 mg per ml

Question: What about the “solubility in propylene glycol” value ([4]; pure propylene glycol, dissolved at 5, 10 and 20 mg/mL) of the same compound?
Answer: surprisingly soluble in propylene glycol

Question: And the “solubility in water” value ([4]; water)?
Answer: difficult to dissolve in water

Question: What about the “optimal dose for complete restoration of erectile function” value ([5]; Subject 1, daily at night) of the same compound?
Answer: 2 mg

Question: And the “time to restoration of erectile function” value ([5]; Subject 3 (person seven), 2 mg)?
Answer: ≤ 10 days

Question: And the “effect on erectile function at 10 mg daily” value ([5]; Subject 3 (person seven), 10 mg daily)?
Answer: the beneficial effect was lost

Question: And the “time to resolution of erectile dysfunction” value ([5]; Subject 4, 2 mg)?
Answer: ≤ 5 days

Question: What about the “time to resolution of erectile dysfunction” value ([5]; Subject 5, 2 mg) of the same compound?
Answer: ≤ 2 weeks

Question: And the “effect of 10 mg compared with 5 mg” value ([5]; Subject 5, 10 mg)?
Answer: did not produce the same benefit as 5 mg

Question: And the “effect when taken with food” value ([5]; Subject 5, taken with food)?
Answer: 2 mg was not that effective but 5 mg was

Question: And the “outcome on pain related to chronic fibromyalgia” value ([6]; Subject 1, 2 mg once daily added to oxycodone)?
Answer: complete relief of pain

Question: What about the “time to complete weaning off oxycodone while maintaining pain relief” value ([6]; Subject 2 (person twelve), 2 mg) of the same compound?
Answer: ≤ 3 months

Question: What about the “pain relief at 10 mg” value ([6]; Subject 2 (person twelve), 10 mg instead of 2 mg) of the same compound?
Answer: negligible pain relief

Question: And the “duration of low dose dipyridamole use after which Percocet was weaned off” value ([6]; Subject 3 (person five), 2 mg)?
Answer: 2 months

Question: What about the “effect on insomnia at 10 mg or more (conclusion of example)” value ([7]; 10 mg or more, 4 subjects) of the same compound?
Answer: little or no effect

Question: And the “benefit on insomnia at 10 mg” value ([7]; Subject 1, 10 mg)?
Answer: negligible benefit compared to lower doses

Question: And the “optimal dose for ensuring an excellent night's sleep” value ([7]; Subject 1, oral, before sleep)?
Answer: 2 mg

Question: And the “duration of undisturbed sleep” value ([7]; Subject 2 (person nine), 2 mg)?
Answer: 6-8 hours per night

Question: And the “optimal dose for ensuring an excellent, undisturbed sleep” value ([7]; Subject 2 (person nine), oral, before sleep)?
Answer: 2 mg

Question: And the “incidence of viral infections under treatment” value ([8]; Subject 3, 2 mg once daily, previously 5-6 times yearly)?
Answer: 1-2 times yearly

Question: What about the “time to resolution of infection symptoms” value ([8]; Subject 3, 2 mg twice daily, previously 7-10 days) of the same compound?
Answer: 1 to 2 days

Question: And the “effect of 10 mg dose on viral infection” value ([8]; Subject 3, 10 mg, one occasion)?
Answer: failed to deliver the same benefit as the 2 mg dose

Question: What about the “optimal dose for reducing incidence of viral infections” value ([8]; Subject 3, once daily) of the same compound?
Answer: 2 mg

Question: What about the recurrence of infections ([8]; Subject 4, 2 mg daily for 10 months, previously every 3-4 months) of the same compound?
Answer: without any recurrence of infections

Question: And the “time to complete relief of symptoms of severe viral infection” value ([8]; Subject 4, 2 mg twice daily, upper respiratory symptoms plus viral conjunctivitis)?
Answer: 1 to 2 days

Question: And the “peak plasma concentration at steady state” value ([9]; 75 mg q.i.d.)?
Answer: 1.54 µg/mL

Question: What about the “trough plasma concentration at steady state” value ([9]; 75 mg q.i.d.) of the same compound?
Answer: 0.269 µg/mL

Question: And the “geometric mean peak plasma concentration at steady state” value ([9]; 75 mg t.d.s.)?
Answer: 1.86 µg/mL

Question: And the “geometric mean trough plasma concentration at steady state” value ([9]; 75 mg t.d.s.)?
Answer: 0.13 µg/mL

Question: And the “peak plasma concentration at steady state” value ([9]; 100 mg q.i.d.)?
Answer: 2.36 µg/mL

Question: And the “trough plasma concentration at steady state” value ([9]; 100 mg q.i.d.)?
Answer: 0.432 µg/mL

Question: And the “half-life, first phase of tri-exponential plasma decline” value ([9]; IV only, 20-50 mg, followed up to 60 hours)?
Answer: 5 min

Question: And the “half-life, second phase of tri-exponential plasma decline” value [9, 16]?
Answer: 53 min

Question: And the “half-life, third phase of tri-exponential plasma decline” value [9, 16]?
Answer: 600 to 720 min

Question: What about the “time to peak plasma levels” value ([9]; humans, following oral administration) of the same compound?
Answer: 1 to 3 h

Question: And the distribution half-life ([9]; humans, intravenous (IV) administration)?
Answer: about 25 minutes

Question: And the distribution half-life ([9]; humans, oral administration)?
Answer: about 3 hours

Question: What about the “dose range in which dose linearity was demonstrated” value ([9]; single dose administration) of the same compound?
Answer: 25 to 150 mg

Question: What about the “optimal dose for expansion of hairline, thicker hair, decreased hair loss and increased growth of chest and abdominal hair” value [10] of the same compound?
Answer: 4 mg

Question: And the potency after storage [11]?
Answer: maintained its potency

Question: And the “duration of occasionally recurring symptoms” value [12]?
Answer: 2 to 3 h

Question: And the “reduction in severity of occasionally recurring symptoms” value ([12]; recurrence once every few weeks)?
Answer: 70%

Question: What about the “prior response of insomnia to low dose dipyridamole alone” value ([13]; six subjects, 1 or 2 mg daily) of the same compound?
Answer: somewhat responsive

Question: And the “PSA (Prostate Specific Antigen) after treatment” value [14]?
Answer: 14

Question: What about the “outcome on dry eye symptoms” value [15] of the same compound?
Answer: complete relief of dry eye symptoms

Question: With COc1ccc2[nH]cc(CCNC(C)=O)c2c1 [melatonin] as the compound, how does the “prior response of insomnia to melatonin alone” value ([13]; six subjects with treatment-refractory insomnia) read?
Answer: unresponsive
